According to paper PMC10568103, “Quantification of soluble epoxide hydrolase inhibitors in experimental and clinical samples using the nanobody-based ELISA” (Journal of Pharmaceutical Analysis, 2023):
Each block holds one molecule with its values, some of them ahead of it.

How the values were obtained:
Nb-EC03 = experiment: Nb-based indirect competitive ELISA for EC5026 (EC5026 immunoassay); conditions: for EC5026 immunoassay CR: CR% = IC50 (EC5026)/IC50 (analog) × 100%; for EC5026 immunoassay IC50: Nb-EC03, cAg 2-BSA
Method: (d) 100 μL of HRP-anti-HA was introduced, incubated and shaken for another 60 min; (e) after the final washing step, 100 μL of the TMB substrate solution was added and incubated for 15 min, followed by being stopped by 50 μL of H2SO4 solution (1.0 M). […] The linear range was established between the IC20 value and the IC80 value.

Nb-TP02 = experiment: Nb-based indirect competitive ELISA for TPPU (TPPU immunoassay); type: binding, llama; conditions: for TPPU immunoassay CR: CR% = IC50 (TPPU)/IC50 (analog) × 100%; for TPPU immunoassay IC50: Nb-TP02, cAg 6-OVA
Description: The limit of detection (LOD) of Nb-based ELISAs for detecting the concentrations of the sEHI was defined as the concentration of sEHI that provided a 10% inhibition rate (IC10 value). […]

human sEH [1] = molecular target: T1, human sEH (Homo sapiens, UniProt P34913); experiment: Activity on the target sEH enzyme; type: biochemical
T1 sequence (P34913 1-555): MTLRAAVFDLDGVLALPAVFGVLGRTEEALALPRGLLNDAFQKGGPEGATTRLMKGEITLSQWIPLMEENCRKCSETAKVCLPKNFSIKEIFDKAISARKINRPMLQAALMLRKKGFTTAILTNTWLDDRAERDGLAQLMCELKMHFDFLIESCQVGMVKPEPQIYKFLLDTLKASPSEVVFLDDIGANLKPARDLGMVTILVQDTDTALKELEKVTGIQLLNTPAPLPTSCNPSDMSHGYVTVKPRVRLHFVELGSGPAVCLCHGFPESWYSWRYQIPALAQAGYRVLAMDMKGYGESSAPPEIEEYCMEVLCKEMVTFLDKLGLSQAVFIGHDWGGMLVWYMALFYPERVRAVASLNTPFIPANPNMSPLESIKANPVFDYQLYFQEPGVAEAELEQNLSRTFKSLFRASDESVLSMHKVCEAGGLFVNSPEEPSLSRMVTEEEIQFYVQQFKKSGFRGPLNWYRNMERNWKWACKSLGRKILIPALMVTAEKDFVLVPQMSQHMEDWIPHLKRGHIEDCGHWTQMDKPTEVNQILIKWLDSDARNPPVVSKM

[2] = LC-MS analysis of urine samples from human clinical trial with EC5026; type: in vivo
Method: To assess the feasibility of Nb-based ELISAs for EC5026 and TPPU, the human urine and FBS were used as the matrix for precision and accuracy determination. The precision is shown as coefficient variation (CV%). The accuracy is expressed by the recovery, and the recovery is calculated as (Found concentration/Spiked concentration) × 100%. The standard solutions of EC5026 or TPPU were spiked blindly into human urine and FBS to obtain final concentrations of 1.25, 5 and 20 ng/mL, respectively. The experimental urine samples were collected from participants in the human clinical trial for EC5026, and the supernatant was collected by centrifugation (10,000 g, 5 min, 4 °C). The processed clinical samples were divided into two aliquots. One was diluted 10 times and then was detected by the Nb-based ELISA, and the other was for the LC-MS analysis directly in a bind fashion by different scientists.
The urine samples were analyzed by an LC-MS/MS method using Waters (Milford, MA, USA) Acquity UPLC system with Waters Xevo TQS tandem mass spectrometer. The separation was implemented on a Phenomenex Kinetex 150 x 2 mm C18 column. The mobile phases are 0.1 % of acetic acid in water as phase A, 0.1% of acetic acid in methanol as phase B. The gradient of the separation started from 50% of B and increased to 63% of B at 3.6 min then ramped to 95% at 4 min. The flow rate was 0.4 mL/min. The mass spectrometer was operated with negative electrospray ionization. The MRM transitions are 404.2/194 for EC5026, 420.2/194 for both M1 and M2. The source parameters of mass spectrometer are: capillary voltage: –3 KV, desolvation temperature: 300°C, desolvation gas flow: 800 L/hr; cone: 150 L/min; nebulizer: 7 bar.

human sEH [3] = molecular target: T1, human sEH; experiment: Inhibition of human sEH in vitro (potency unit definition, assay of Jones et al.); type: biochemical; conditions: 1 nM human sEH, read-out: 1 Potency unit: concentration permitting the inhibition of 50% of 1 nM of the human sEH
[4] = Subject 1, 0–8 h post exposure to EC5026
[5] = Subject 1, 8–16 h post exposure to EC5026
[6] = Subject 1, 16–24 h post exposure to EC5026
[7] = Subject 1, 24–32 h post exposure to EC5026
[8] = Subject 1, 32–40 h post exposure to EC5026
[9] = Subject 1, 40–48 h post exposure to EC5026
[10] = Subject 2, 0–8 h post exposure to EC5026
[11] = Subject 2, 8–16 h post exposure to EC5026
[12] = Subject 2, 16–24 h post exposure to EC5026
[13] = Subject 2, 24–32 h post exposure to EC5026
[14] = Subject 2, 32–40 h post exposure to EC5026
[15] = Subject 2, 40–48 h post exposure to EC5026
[16] = Subject 3, 0–8 h post exposure to EC5026
[17] = Subject 3, 8–16 h post exposure to EC5026
[18] = Subject 3, 16–24 h post exposure to EC5026
[19] = Subject 3, 24–32 h post exposure to EC5026
[20] = Subject 3, 32–40 h post exposure to EC5026
[21] = Subject 3, 40–48 h post exposure to EC5026

TPPU immunoassay IC50 (Nb-TP02): 11.66 ng/mL
SMILES: O=C(Nc1ccc(OC(F)(F)F)cc1)NC1CCNCC1 [Compound 12]
TPPU immunoassay CR (Nb-TP02): 25.6%

[EC5026] LC-MS analysis [2, 4]: 2.96 ng/mL
[EC5026] LC-MS analysis [2, 5]: 1.41 ng/mL
[EC5026] LC-MS analysis [2, 6]: 1.81 ng/mL
[EC5026] LC-MS analysis [2, 7]: 1.43 ng/mL
[EC5026] LC-MS analysis [2, 8]: 1.63 ng/mL
[EC5026] LC-MS analysis [2, 9]: 1.24 ng/mL
[EC5026] LC-MS analysis [2, 10]: 3.01 ng/mL
[EC5026] LC-MS analysis [2, 11]: 5.57 ng/mL
[EC5026] LC-MS analysis [2, 12]: 4.86 ng/mL
[EC5026] LC-MS analysis [2, 13]: 2.84 ng/mL
[EC5026] LC-MS analysis [2, 14]: 3.46 ng/mL
[EC5026] LC-MS analysis [2, 15]: 2.01 ng/mL
[EC5026] LC-MS analysis [2, 16]: 6.53 ng/mL
[EC5026] LC-MS analysis [2, 17]: 4.69 ng/mL
[EC5026] LC-MS analysis [2, 18]: 2.59 ng/mL
[EC5026] LC-MS analysis [2, 19]: 2.98 ng/mL
[EC5026] LC-MS analysis [2, 20]: 2.06 ng/mL
[EC5026] LC-MS analysis [2, 21]: 1.18 ng/mL
EC5026 immunoassay CR (Nb-EC03): 100%
Curve parameters IC50 (Nb-EC03; Nb-EC03, cAg 1-BSA (homologous)): 7.32 ng/mL
Curve parameters IC50 (Nb-EC03; Nb-EC03, cAg 1-OVA (homologous)): 5.68 ng/mL
EC5026 immunoassay IC50 (Nb-EC03): 1.44 ng/mL
Curve parameters IC50 (Nb-EC03; Nb-EC03, cAg 2-OVA (homologous)): 1.48 ng/mL
Curve parameters IC50 (Nb-EC03; Nb-EC03, cAg 3-BSA (heterologous)): 11.45 ng/mL
Curve parameters IC50 (Nb-EC03; Nb-EC03, cAg 3-OVA (heterologous)): 12.49 ng/mL
TPPU immunoassay IC50 (Nb-TP02): 3.44 ng/mL
SMILES: CC[C@H](C)C(=O)N1CCC(NC(=O)Nc2ccc(OC(F)(F)F)c(F)c2)CC1 [EC5026]
TPPU immunoassay CR (Nb-TP02): 86.6%

[M1] LC-MS analysis [2, 4]: 24.22 ng/mL
[M1] LC-MS analysis [2, 5]: 44.30 ng/mL
[M1] LC-MS analysis [2, 6]: 35.82 ng/mL
[M1] LC-MS analysis [2, 7]: 48.89 ng/mL
[M1] LC-MS analysis [2, 8]: 36.78 ng/mL
[M1] LC-MS analysis [2, 9]: 33.49 ng/mL
[M1] LC-MS analysis [2, 10]: 12.48 ng/mL
[M1] LC-MS analysis [2, 11]: 38.41 ng/mL
[M1] LC-MS analysis [2, 12]: 43.37 ng/mL
[M1] LC-MS analysis [2, 13]: 35.76 ng/mL
[M1] LC-MS analysis [2, 14]: 55.70 ng/mL
[M1] LC-MS analysis [2, 15]: 40.74 ng/mL
[M1] LC-MS analysis [2, 16]: 13.41 ng/mL
[M1] LC-MS analysis [2, 17]: 36.41 ng/mL
[M1] LC-MS analysis [2, 18]: 67.03 ng/mL
[M1] LC-MS analysis [2, 19]: 31.25 ng/mL
[M1] LC-MS analysis [2, 20]: 67.62 ng/mL
[M1] LC-MS analysis [2, 21]: 98.28 ng/mL
EC5026 immunoassay IC50 (Nb-EC03): 1.47 ng/mL
IC50 (human sEH [3]): 0.0961 nM
TPPU immunoassay IC50 (Nb-TP02): 4.10 ng/mL
SMILES: C[C@H](C(=O)N1CCC(NC(=O)Nc2ccc(OC(F)(F)F)c(F)c2)CC1)[C@@H](C)O [M1, 1-(3-fluoro-4-(trifluoromethoxy)phenyl)-3-(1-((2S,3R)-3-hydroxy-2-methylbutanoyl)piperidin-4-yl)urea]
TPPU immunoassay CR (Nb-TP02): 72.7%

[M2] LC-MS analysis [2, 4]: 28.66 ng/mL
[M2] LC-MS analysis [2, 5]: 61.59 ng/mL
[M2] LC-MS analysis [2, 6]: 51.04 ng/mL
[M2] LC-MS analysis [2, 7]: 67.21 ng/mL
[M2] LC-MS analysis [2, 8]: 47.44 ng/mL
[M2] LC-MS analysis [2, 9]: 43.94 ng/mL
[M2] LC-MS analysis [2, 10]: 12.99 ng/mL
[M2] LC-MS analysis [2, 11]: 53.46 ng/mL
[M2] LC-MS analysis [2, 12]: 59.34 ng/mL
[M2] LC-MS analysis [2, 13]: 45.69 ng/mL
[M2] LC-MS analysis [2, 14]: 75.89 ng/mL
[M2] LC-MS analysis [2, 15]: 52.38 ng/mL
[M2] LC-MS analysis [2, 16]: 14.93 ng/mL
[M2] LC-MS analysis [2, 17]: 50.31 ng/mL
[M2] LC-MS analysis [2, 18]: 106.12 ng/mL
[M2] LC-MS analysis [2, 19]: 44.20 ng/mL
[M2] LC-MS analysis [2, 20]: 103.57 ng/mL
[M2] LC-MS analysis [2, 21]: 158.70 ng/mL
EC5026 immunoassay IC50 (Nb-EC03): 1.38 ng/mL
IC50 (human sEH [3]): 0.0961 nM
TPPU immunoassay IC50 (Nb-TP02): 5.01 ng/mL
SMILES: C[C@H](O)[C@H](C)C(=O)N1CCC(NC(=O)Nc2ccc(OC(F)(F)F)c(F)c2)CC1 [M2, 1-(3-fluoro-4-(trifluoromethoxy)phenyl)-3-(1-((2S,3S)-3-hydroxy-2-methylbutanoyl)piperidin-4-yl)urea]
TPPU immunoassay CR (Nb-TP02): 59.4%

EC5026 immunoassay CR (Nb-EC03): 52.9%
EC5026 immunoassay IC50 (Nb-EC03): 2.72 ng/mL
Curve parameters IC50 (Nb-TP02; Nb-TP02, cAg 4-BSA (homologous)): 2.53 ng/mL
Curve parameters IC50 (Nb-TP02; Nb-TP02, cAg 4-OVA (homologous)): 2.76 ng/mL
Curve parameters IC50 (Nb-TP02; Nb-TP02, cAg 5-BSA (homologous)): 4.53 ng/mL
Curve parameters IC50 (Nb-TP02; Nb-TP02, cAg 5-OVA (homologous)): 2.44 ng/mL
Curve parameters IC50 (Nb-TP02; Nb-TP02, cAg 6-BSA (heterologous)): 2.40 ng/mL
TPPU immunoassay IC50 (Nb-TP02): 2.98 ng/mL
SMILES: CCC(=O)N1CCC(NC(=O)Nc2ccc(OC(F)(F)F)cc2)CC1 [TPPU, 1-trifluoromethoxyphenyl-3-(1-propionylpiperidin-4-yl)urea]
TPPU immunoassay CR (Nb-TP02): 100%

Further lines, the molecule ahead of its results:

SMILES: O=C(Nc1ccc(OC(F)(F)F)c(F)c1)NC1CCNCC1 [Compound 11, 1-(3-fluoro-4-(trifluoromethoxy)phenyl)-3-(piperidin-4-yl)urea]
EC5026 immunoassay CR (Nb-EC03): 34.0%
EC5026 immunoassay IC50 (Nb-EC03): 4.23 ng/mL
TPPU immunoassay CR (Nb-TP02): 33.4%
TPPU immunoassay IC50 (Nb-TP02): 8.91 ng/mL

SMILES: Nc1ccc(OC(F)(F)F)c(F)c1 [Compound 14, 3-fluoro-4-(trifluoromethoxy)aniline]
EC5026 immunoassay CR (Nb-EC03): <0.01%
EC5026 immunoassay IC50 (Nb-EC03): >150000 ng/mL
IC50 (human sEH [1]): > 50000 nM
TPPU immunoassay CR (Nb-TP02): <0.01%
TPPU immunoassay IC50 (Nb-TP02): >300000 ng/mL

SMILES: Nc1ccc(OC(F)(F)F)cc1 [Compound 15, 4-(trifluoromethoxy)aniline]
EC5026 immunoassay CR (Nb-EC03): <0.01%
EC5026 immunoassay IC50 (Nb-EC03): >150000 ng/mL
IC50 (human sEH [1]): > 50000 nM
TPPU immunoassay CR (Nb-TP02): <0.01%
TPPU immunoassay IC50 (Nb-TP02): >300000 ng/mL
